Reference: patent publication EP4810052A2, “HCRHR2 SELECTIVE POLYPEPTIDES” (Gubra A/S, priority 2023, dated 2026)
Where two headings read alike, the source gives them in different places. Starred links: 1 amine or outer side, 2 acyl side, 3 side chain; linkers in the order of their positions; H or OH if unused. Non-standard residues stand in square brackets, D forms with d. Residues, ends and D or L forms follow the SMILES beside them. Groups on a side chain read outwards from the residue. *: point of attachment. C20 diacid = O=C(O)CCCCCCCCCCCCCCCCCCC(=O)*; Pro(cis-4-F) = O=C(O)[C@@H]1C[C@H](F)CN1; γGlu = O=C(O)[C@H](CCC(=O)[*:2])N[*:1]; NMeI = CC[C@H](C)[C@H](NC)C(=O)O; Nle = CCCC[C@H](N)C(=O)O; AEEA = NCCOCCOCC(=O)O; Aib = CC(C)(N)C(=O)O

Legend:
hCRHR1 = molecular target: T1, hCRHR1 (Homo sapiens, UniProt P34998); test: HTRF cAMP assay, determination of hCRHR1 potency (peptide libraries 5 conc., purified peptides 11 conc.); type: cell-based
T1 sequence (P34998 24-415): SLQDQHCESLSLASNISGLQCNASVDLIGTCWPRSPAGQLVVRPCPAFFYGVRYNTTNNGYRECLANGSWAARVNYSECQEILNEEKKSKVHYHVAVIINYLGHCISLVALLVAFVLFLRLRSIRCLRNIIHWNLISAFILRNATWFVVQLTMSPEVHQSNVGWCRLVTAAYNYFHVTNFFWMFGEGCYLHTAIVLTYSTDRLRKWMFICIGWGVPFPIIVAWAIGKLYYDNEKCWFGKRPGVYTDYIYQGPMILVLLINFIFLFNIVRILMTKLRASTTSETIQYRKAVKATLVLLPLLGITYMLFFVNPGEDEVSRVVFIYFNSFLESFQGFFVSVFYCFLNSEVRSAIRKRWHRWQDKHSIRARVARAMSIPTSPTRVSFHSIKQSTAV
Summary of the method: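 CHO-K1 cells stably expressing human CRHR1, thawed from frozen stocks just before use, were stimulated in suspension with agonist peptides. cAMP was measured by HTRF competitive immunoassay (cryptate anti-cAMP antibody vs d2-cAMP).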

hCRHR2 = molecular target: T2, hCRHR2 (Homo sapiens, UniProt Q13324); test: HTRF cAMP assay, determination of hCRHR2 potency (peptide libraries 5 conc., purified peptides 11 conc.); type: cell-based
T2 sequence (Q13324 1-411): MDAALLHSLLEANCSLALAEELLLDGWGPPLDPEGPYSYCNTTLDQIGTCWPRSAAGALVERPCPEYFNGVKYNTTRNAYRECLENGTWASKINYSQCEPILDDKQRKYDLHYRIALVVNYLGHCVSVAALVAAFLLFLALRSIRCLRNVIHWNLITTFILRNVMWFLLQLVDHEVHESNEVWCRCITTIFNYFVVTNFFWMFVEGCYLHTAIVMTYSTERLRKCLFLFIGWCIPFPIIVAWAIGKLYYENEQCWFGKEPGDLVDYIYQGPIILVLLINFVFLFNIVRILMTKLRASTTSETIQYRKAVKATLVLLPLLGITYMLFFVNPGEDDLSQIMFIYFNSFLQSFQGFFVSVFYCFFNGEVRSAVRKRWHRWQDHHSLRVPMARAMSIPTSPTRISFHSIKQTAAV
Summary of the method: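 CHO-K1 cells stably expressing human CRHR2, thawed from frozen stocks just before use and run in suspension; cAMP measured by competitive HTRF immunoassay (cryptate anti-cAMP, d2-cAMP). Agonist peptides tested at 5 (libraries) or 11 (purified) concentrations; EC50 from sigmoid variable-slope nonlinear regression.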

[1] = library peptides, matched molecular pairs L vs Nle in position X^38, read-out: Potency hCRHR1 pEC50 (converted)
[2] = library peptides, matched molecular pairs L vs Nle in position X^38, read-out: Potency hCRHR2 pEC50 (converted)

| EC50 (hCRHR1; [1]) [nM] | EC50 (hCRHR2; [2]) [nM] | SMILES | other results |
| --- | --- | --- | --- |
| 3160 | 0.398 | CC[C@H](C)[C@H](N)C(=O)N[C@H](C(=O)N[C@@H](CC(C)C)C(=O)N[C@@H](CO)C(=O)N[C@@H](CC(C)C)C(=O)N[C@@H](CC(=O)O)C(=O)N[C@H](C(=O)N1CCC[C@H]1C(=O)N[C@H](C(=O)NCC(=O)N[C@@H](CC(C)C)C(=O)N[C@@H](CC(C)C)C(=O)N[C@@H](CCC(N)=O)C(=O)N[C@H](C(=O)N[C@@H](CC(C)C)C(=O)N[C@@H](CC(C)C)C(=O)N[C@@H](CCC(=O)O)C(=O)N[C@@H](CCC(N)=O)C(=O)N[C@@H](C)C(=O)N[C@@H](CCCNC(=N)N)C(=O)N[C@@H](C)C(=O)N[C@@H](CCCNC(=N)N)C(=O)N[C@@H](C)C(=O)N[C@@H](CCC(N)=O)C(=O)N[C@@H](CCCNC(=N)N)C(=O)N[C@@H](CCC(=O)O)C(=O)N[C@@H](CCC(N)=O)C(=O)N[C@@H](C)C(=O)N[C@@H](CCCCNC(=O)COCCOCCNC(=O)COCCOCCNC(=O)CC[C@H](NC(=O)CC[C@H](NC(=O)CCCCCCCCCCCCCCCCCCC(=O)O)C(=O)O)C(=O)O)C(=O)N[C@H](C(=O)N[C@@H](CC(N)=O)C(=O)N[C@@H](C)C(=O)N[C@@H](CCC(=O)O)C(=O)N[C@H](C(=O)N[C@@H](CC(C)C)C(=O)N[C@@H](C)C(=O)N[C@@H](CCC(=O)O)C(=O)N[C@H](C(N)=O)C(C)C)[C@@H](C)CC)[C@@H](C)O)[C@@H](C)CC)[C@@H](C)CC)C(C)C)C(C)C [compound 56] (H-IVLSLDVPIGLLQILLEQARARAQREQAK([AEEA-AEEA-γGlu-γGlu-C20 diacid])TNAEILAEV-NH2) |  |
| 25100 | 1 | CC[C@H](C)[C@H](N)C(=O)N[C@H](C(=O)N[C@@H](CC(C)C)C(=O)N[C@@H](CO)C(=O)N[C@@H](CC(C)C)C(=O)N[C@@H](CC(=O)O)C(=O)N[C@H](C(=O)N1C[C@@H](F)C[C@H]1C(=O)N[C@H](C(=O)NCC(=O)N[C@@H](CC(C)C)C(=O)N[C@@H](CC(C)C)C(=O)N[C@@H](CCC(N)=O)C(=O)N[C@H](C(=O)N[C@@H](CC(C)C)C(=O)N[C@@H](CC(C)C)C(=O)N[C@H](C(=O)N[C@@H](CCC(N)=O)C(=O)N[C@@H](C)C(=O)N[C@@H](CCCNC(=N)N)C(=O)N[C@@H](C)C(=O)N[C@@H](CCCNC(=N)N)C(=O)N[C@@H](C)C(=O)N[C@@H](C)C(=O)N[C@@H](CCCNC(=N)N)C(=O)N[C@@H](CCC(=O)O)C(=O)N[C@@H](CCC(N)=O)C(=O)N[C@@H](C)C(=O)N[C@@H](CCCCNC(=O)COCCOCCNC(=O)COCCOCCNC(=O)CC[C@H](NC(=O)CC[C@H](NC(=O)CCCCCCCCCCCCCCCCCCC(=O)O)C(=O)O)C(=O)O)C(=O)N[C@H](C(=O)N[C@@H](CC(N)=O)C(=O)N[C@@H](C)C(=O)N[C@@H](CCC(=O)O)C(=O)N[C@H](C(=O)N[C@@H](CC(C)C)C(=O)N[C@@H](C)C(=O)N[C@@H](CCC(=O)O)C(=O)N[C@H](C(N)=O)C(C)C)[C@@H](C)CC)[C@@H](C)O)[C@@H](C)O)[C@@H](C)CC)[C@@H](C)CC)C(C)C)C(C)C [compound 80] (H-IVLSLDV[Pro(cis-4-F)]IGLLQILLTQARARAAREQAK([AEEA-AEEA-γGlu-γGlu-C20 diacid])TNAEILAEV-NH2) |  |

The next lines start with the compound.

| SMILES | EC50 (hCRHR1; [1]) [nM] | EC50 (hCRHR2; [2]) [nM] | other results |
| --- | --- | --- | --- |
| CCCC[C@H](NC(=O)[C@@H](NC(=O)[C@H](CCC(=O)O)NC(=O)C(C)(C)NC(=O)[C@H](CC(N)=O)NC(=O)[C@@H](NC(=O)[C@H](CCCCNC(=O)COCCOCCNC(=O)COCCOCCNC(=O)CC[C@H](NC(=O)CC[C@H](NC(=O)CCCCCCCCCCCCCCCCCCC(=O)O)C(=O)O)C(=O)O)NC(=O)[C@H](C)NC(=O)[C@H](CCC(N)=O)NC(=O)[C@H](CCC(=O)O)NC(=O)[C@H](CCCNC(=N)N)NC(=O)[C@H](C)NC(=O)[C@H](C)NC(=O)[C@H](CCCNC(=N)N)NC(=O)[C@H](C)NC(=O)[C@H](CCCNC(=N)N)NC(=O)[C@H](C)NC(=O)[C@H](CCC(N)=O)NC(=O)[C@H](CCC(N)=O)NC(=O)[C@H](CC(C)C)NC(=O)[C@H](CC(C)C)NC(=O)[C@@H](NC(=O)[C@H](CCC(N)=O)NC(=O)[C@H](CC(C)C)NC(=O)[C@H](CC(C)C)NC(=O)CNC(=O)[C@@H](NC(=O)[C@@H]1CCCN1C(=O)[C@@H](NC(=O)[C@H](CC(=O)O)NC(=O)[C@H](CC(C)C)NC(=O)[C@H](CO)NC(=O)[C@H](CC(C)C)NC(=O)[C@@H](NC(=O)[C@@H](NC)[C@@H](C)CC)C(C)C)C(C)C)[C@@H](C)CC)[C@@H](C)CC)[C@@H](C)O)[C@@H](C)CC)C(=O)N[C@@H](C)C(=O)N[C@@H](CCC(=O)O)C(=O)N[C@H](C(N)=O)C(C)C [compound 202] (H-[NMeI]VLSLDVPIGLLQILLQQARARAAREQAK([AEEA-AEEA-γGlu-γGlu-C20 diacid])TN[Aib]EI[Nle]AEV-NH2) |  |  | EC50 (hCRHR1; Table 4, library peptides having X^38 = Nle, read-out: hCRHR1 pEC50 (converted)): 794 nM; EC50 (hCRHR2; Table 4, library peptides having X^38 = Nle, read-out: hCRHR2 pEC50 (converted)): 0.0251 nM |
| CCCC[C@H](NC(=O)[C@@H](NC(=O)[C@H](CCC(=O)O)NC(=O)[C@H](C)NC(=O)[C@H](CC(N)=O)NC(=O)[C@@H](NC(=O)[C@H](CCCCNC(=O)COCCOCCNC(=O)COCCOCCNC(=O)CC[C@H](NC(=O)CC[C@H](NC(=O)CCCCCCCCCCCCCCCCCCC(=O)O)C(=O)O)C(=O)O)NC(=O)[C@H](C)NC(=O)[C@H](CCC(N)=O)NC(=O)[C@H](CCC(=O)O)NC(=O)[C@H](CCCNC(=N)N)NC(=O)[C@H](C)NC(=O)[C@H](CCC(N)=O)NC(=O)[C@H](CCCNC(=N)N)NC(=O)[C@H](C)NC(=O)[C@H](CCCNC(=N)N)NC(=O)[C@H](C)NC(=O)[C@H](CCC(N)=O)NC(=O)[C@H](CCC(=O)O)NC(=O)[C@H](CC(C)C)NC(=O)[C@H](CC(C)C)NC(=O)[C@@H](NC(=O)[C@H](CCC(N)=O)NC(=O)[C@H](CC(C)C)NC(=O)[C@H](CC(C)C)NC(=O)CNC(=O)[C@@H](NC(=O)[C@@H]1CCCN1C(=O)[C@@H](NC(=O)[C@H](CC(=O)O)NC(=O)[C@H](CC(C)C)NC(=O)[C@H](CO)NC(=O)[C@H](CC(C)C)NC(=O)[C@@H](NC(=O)[C@@H](N)[C@@H](C)CC)C(C)C)C(C)C)[C@@H](C)CC)[C@@H](C)CC)[C@@H](C)O)[C@@H](C)CC)C(=O)N[C@@H](C)C(=O)N[C@@H](CCC(=O)O)C(=O)N[C@H](C(N)=O)C(C)C [compound 53] (H-IVLSLDVPIGLLQILLEQARARQAREQAK([AEEA-AEEA-γGlu-γGlu-C20 diacid])TNAEI[Nle]AEV-NH2) | 251 | 0.316 |  |
| CCCC[C@H](NC(=O)[C@@H](NC(=O)[C@H](CCC(=O)O)NC(=O)[C@H](C)NC(=O)[C@H](CC(N)=O)NC(=O)[C@@H](NC(=O)[C@H](CCCCNC(=O)COCCOCCNC(=O)COCCOCCNC(=O)CC[C@H](NC(=O)CC[C@H](NC(=O)CCCCCCCCCCCCCCCCCCC(=O)O)C(=O)O)C(=O)O)NC(=O)[C@H](C)NC(=O)[C@H](CCCNC(=N)N)NC(=O)[C@H](CCC(=O)O)NC(=O)[C@H](CCCNC(=N)N)NC(=O)[C@H](C)NC(=O)[C@H](C)NC(=O)[C@H](CCCNC(=N)N)NC(=O)[C@H](C)NC(=O)[C@H](CCCNC(=N)N)NC(=O)[C@H](C)NC(=O)[C@H](CCC(N)=O)NC(=O)[C@H](CCC(=O)O)NC(=O)[C@H](CC(C)C)NC(=O)[C@H](CC(C)C)NC(=O)[C@@H](NC(=O)[C@H](CCC(N)=O)NC(=O)[C@H](CC(C)C)NC(=O)[C@H](CC(C)C)NC(=O)CNC(=O)[C@@H](NC(=O)[C@@H]1CCCN1C(=O)[C@@H](NC(=O)[C@H](CC(=O)O)NC(=O)[C@H](CC(C)C)NC(=O)[C@H](CO)NC(=O)[C@H](CC(C)C)NC(=O)[C@@H](NC(=O)[C@@H](N)[C@@H](C)CC)C(C)C)C(C)C)[C@@H](C)CC)[C@@H](C)CC)[C@@H](C)O)[C@@H](C)CC)C(=O)N[C@@H](C)C(=O)N[C@@H](CCC(=O)O)C(=O)N[C@H](C(N)=O)C(C)C [compound 67] (H-IVLSLDVPIGLLQILLEQARARAARERAK([AEEA-AEEA-γGlu-γGlu-C20 diacid])TNAEI[Nle]AEV-NH2) |  |  | EC50 (hCRHR1): 2000 nM; EC50 (hCRHR2): 0.126 nM |
